Consider four compounds from article PMC6199744, “Development of Chemical Proteomics for the Folateome and Analysis of the Kinetoplastid Folateome” (ACS Infectious Diseases, 2018).

The target of assay [1] is GLYCERALDEHYDE 3-PHOSPHATE DEHYDROGENASE, GLYCOSOM (TB427.06.4300) (Trypanosoma brucei brucei, UniProt P22512). The experiment in a line: Multitargeted bead mixture competition. The settings on record: for fold change: vehicle control = 1. It counts as binding, T. brucei.
Assay [2] deals with T1, MTHFS, the 5-formyl-THF-cyclo-ligase (Homo sapiens, UniProt P49914).
T1 sequence (P49914 1-203): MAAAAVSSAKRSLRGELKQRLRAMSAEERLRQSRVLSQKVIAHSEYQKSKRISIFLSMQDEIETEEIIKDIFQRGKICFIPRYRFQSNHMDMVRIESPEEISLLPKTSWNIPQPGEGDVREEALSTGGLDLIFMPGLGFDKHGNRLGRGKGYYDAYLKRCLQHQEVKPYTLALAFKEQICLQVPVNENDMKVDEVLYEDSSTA
The experiment in a line: Multitargeted bead mixture competition, HeLa cell extract. It counts as binding. Particulars: for binding to MTHFS: bead mixture, HeLa cell extract.

The target of the next assay is T2, DHFR (Homo sapiens, UniProt P00374).
T2 sequence (P00374 1-187): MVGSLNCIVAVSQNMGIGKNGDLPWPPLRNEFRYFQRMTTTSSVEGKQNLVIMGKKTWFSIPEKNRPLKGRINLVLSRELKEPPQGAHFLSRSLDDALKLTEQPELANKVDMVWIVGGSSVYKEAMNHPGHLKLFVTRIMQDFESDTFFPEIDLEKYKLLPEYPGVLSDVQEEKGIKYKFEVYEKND
The assay is described as above. It counts as binding.

For assay [3], the target named is T3, MTHF complex (DHCH protein in humans) (Homo sapiens, UniProt P11586).
T3 sequence (P11586 1-935): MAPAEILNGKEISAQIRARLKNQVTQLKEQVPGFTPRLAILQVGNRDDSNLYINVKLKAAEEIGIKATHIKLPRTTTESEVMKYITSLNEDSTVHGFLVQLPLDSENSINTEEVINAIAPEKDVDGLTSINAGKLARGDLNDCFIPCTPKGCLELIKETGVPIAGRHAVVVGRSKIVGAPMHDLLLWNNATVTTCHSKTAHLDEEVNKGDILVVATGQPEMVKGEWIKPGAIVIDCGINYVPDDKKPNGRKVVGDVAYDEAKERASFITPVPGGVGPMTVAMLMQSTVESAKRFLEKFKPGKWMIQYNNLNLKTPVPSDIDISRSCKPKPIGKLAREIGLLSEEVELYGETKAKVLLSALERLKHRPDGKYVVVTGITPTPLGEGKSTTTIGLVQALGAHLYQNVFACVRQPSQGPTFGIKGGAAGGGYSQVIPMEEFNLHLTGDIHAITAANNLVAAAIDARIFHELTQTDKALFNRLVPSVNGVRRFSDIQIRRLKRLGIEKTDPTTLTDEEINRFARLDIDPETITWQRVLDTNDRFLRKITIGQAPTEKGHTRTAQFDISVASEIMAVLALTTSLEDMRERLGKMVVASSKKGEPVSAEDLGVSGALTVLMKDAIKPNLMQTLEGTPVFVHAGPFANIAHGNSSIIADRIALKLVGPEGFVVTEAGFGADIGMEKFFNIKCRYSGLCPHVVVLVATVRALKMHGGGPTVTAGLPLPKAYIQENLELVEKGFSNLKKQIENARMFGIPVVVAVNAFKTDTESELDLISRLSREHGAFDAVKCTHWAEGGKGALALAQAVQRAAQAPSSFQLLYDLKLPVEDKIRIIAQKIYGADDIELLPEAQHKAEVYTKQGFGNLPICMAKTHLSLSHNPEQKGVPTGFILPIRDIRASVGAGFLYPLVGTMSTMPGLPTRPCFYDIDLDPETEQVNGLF
The assay is described as above. It counts as binding.

For assay [4], the target named is PTERIDINE REDUCTASE (TB927.8.2210) (Trypanosoma brucei brucei, UniProt O76290). The experiment in a line: Multitargeted bead mixture competition. The settings on record: for competition for PTR1 (Figure 6): bead mixture, compound 100 μM; for fold change vs vehicle control: vehicle control = 1. It counts as binding, T. brucei.
The target of the next assay is T4, PTR1 (Leishmania major, UniProt Q01782).
T4 sequence (Q01782 1-288): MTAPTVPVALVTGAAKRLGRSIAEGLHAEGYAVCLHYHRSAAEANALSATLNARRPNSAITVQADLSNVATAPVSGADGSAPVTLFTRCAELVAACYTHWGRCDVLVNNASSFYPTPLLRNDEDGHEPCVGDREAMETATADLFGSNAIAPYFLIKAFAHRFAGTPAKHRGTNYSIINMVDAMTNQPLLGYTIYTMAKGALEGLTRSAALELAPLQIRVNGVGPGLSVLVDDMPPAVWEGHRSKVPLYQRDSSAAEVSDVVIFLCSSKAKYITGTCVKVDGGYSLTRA
It counts as binding. Details: endogenous in cells; host or cells: L. major Friedlin promastigote lysate.

Assay [5] has as its system CHOLINE KINASE (TB427TMP.18.0017). The experiment in a line: Multitargeted bead mixture competition. The settings on record: for fold change vs vehicle control: vehicle control = 1. It counts as binding, T. brucei.
Another assay addresses methylene-THF-reductase (Homo sapiens, UniProt P42898). The experiment in a line: Multitargeted bead mixture competition, HeLa cell extract. It counts as binding.
For another assay, the target named is T5, TS (Homo sapiens, UniProt P04818).
T5 construct: endogenous in cells; host or cells: HeLa cell extract
The description is as above. It counts as binding.

In assay [6] the target is T6, HeLa cell extract proteins (Homo sapiens, UniProt P30740).
T6 construct: endogenous in cells; host or cells: HeLa cell extract
T6 sequence (P30740 1-379): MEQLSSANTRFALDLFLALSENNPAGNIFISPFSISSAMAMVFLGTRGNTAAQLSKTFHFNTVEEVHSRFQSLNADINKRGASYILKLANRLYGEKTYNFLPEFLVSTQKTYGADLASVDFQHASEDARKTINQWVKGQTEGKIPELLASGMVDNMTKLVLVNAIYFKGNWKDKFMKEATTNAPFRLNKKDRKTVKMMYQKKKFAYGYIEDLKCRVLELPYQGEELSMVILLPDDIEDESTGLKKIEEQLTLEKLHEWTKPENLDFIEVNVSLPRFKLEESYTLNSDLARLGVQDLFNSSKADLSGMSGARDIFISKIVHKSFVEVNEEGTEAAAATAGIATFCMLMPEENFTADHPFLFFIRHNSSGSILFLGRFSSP
It counts as binding.

Assay [7] deals with phenylalanine-4-hydroxylase (PAH). The experiment in a line: Multitargeted bead mixture competition. It counts as binding, L. major. The settings on record: for binding and competition to phenylalanine-4-hydroxylase (PAH): bead mixture, L. major lysate; for fold change vs vehicle control: protein LMJF.28.1280 PHENYLALANINE-4-HYDROXYLASE,PHENYLALANINE-4-HYDROXYLASE, PUTATIVE
[8] abbreviates: protein TB427.06.4300 GLYCERALDEHYDE 3-PHOSPHATE DEHYDROGENASE, GLYCOSOMAL
The mark [9] stands for this setting: protein PTERIDINE REDUCTASE (CZT00009056.1).
[10] abbreviates: protein TB427TMP.18.0017 CHOLINE KINASE.
Setting [11] is: HeLa, protein DHFR (SIMILAR TO DIHYDROFOLATE REDUCTASE ISOFORM 2, PARTIAL).
[12] abbreviates: HeLa, captured protein MTHFD1 (105 KDA PROTEIN.).
Setting [13] is: vs vehicle control, protein LMJF.23.0270 PTERIDINE REDUCTASE 1.

Where two headings read alike, the source gives them in different places.

As to `Nc1nc2cccc(-c3ccccc3)c2n1Cc1ccc(Cl)c(Cl)c1` [compound 3], the “percentage of competition from bead binding” value in assay [1] (multitargeted bead mixture, free ligand 100 μM, T. brucei lysate, TB427.06.4300 GAPDH) was 3%; in assay [4] (multitargeted bead mixture, free ligand 100 μM, T. brucei lysate, TB927.8.2210 PTERIDINE REDUCTASE) it was 89%; in assay [5] (multitargeted bead mixture, free ligand 100 μM, T. brucei lysate, TB427TMP.18.0017 CHOLINE KINASE) it was -1%. The “fold change - vehicle control” value in [1] (setting [8]) is reported as 0.99; in assay [4] (setting [9]) it was 0.15; in [5] (setting [10]) it was 1. For the same compound, the “fold changes relative to vehicle control” value in assay [2] (captured protein MTHFS, HeLa) was 0.96; at DHFR (captured protein DHFR, HeLa), 1.13; in assay [3] (HeLa, protein MTHFD1) it was 1.01; on methylene-THF-reductase (captured protein MTHFR, HeLa), 1.06; at TS (captured protein TYMS, HeLa), 0.99; in [6] (protein SERPINB1, HeLa), 0.98. Further, in [4] (T. brucei lysate), the “competition for PTR1 (Figure 6)” value was “competed for PTR1”. The fold change was found to be 0.99 on PTR1 (LMJF.23.0270 PTERIDINE REDUCTASE 1, vehicle control = 1) and 0.81 in [7] (protein LMJF.28.1280 PHENYLALANINE-4-HYDROXYLASE, vehicle control = 1). Also, the “competition for PTR1 (Figure 8a)” value at PTR1 (bead mixture, L. major lysate) is reported as “no inhibition of PTR1”. The “binding and competition to phenylalanine-4-hydroxylase (PAH)” value in assay [7] is “binding and competition”.
For `NCCOCCOCC(=O)Nc1nc2ncc(CNc3ccc(C(=O)NC(CCC(=O)O)C(=O)O)cc3)nc2c(=O)[nH]1` (stereo not drawn) [compound 6], the fold change in [1] (setting [8]) stood at 0.92; on PTR1 (setting [13]), 0.98. Also, the “fold changes relative to vehicle control” value in assay [2] (protein MTHFS, HeLa) is reported as 0.5; at DHFR (setting [11]) it was 1.74; in [3] (setting [12]), 0.92; at methylene-THF-reductase (protein MTHFR, HeLa), 0.84; at TS (protein TYMS, HeLa), 0.55; in [6] (HeLa, protein SERPINB1), 1.09. The “fold change vs vehicle control” value in assay [4] (setting [9]) came out at 0.49; in assay [5] (setting [10]) it was 1.05; in assay [7] it was 0.99.
On to `Nc1nc2[nH]cc(CCc3ccc(C(=O)N[C@@H](CCC(=O)O)C(=O)O)cc3)c2c(=O)[nH]1` [PTX, pemetrexed], for which the values for the fold change (in assay [1] (setting [8]); at PTR1) were 0.91 and 0.52, respectively. For the same compound, the “fold changes relative to vehicle control” value in [2] worked out at 0.17; at DHFR, 1.09; in assay [3] it was 0.72; at methylene-THF-reductase it was 0.47; at TS it was 0.34; in assay [6], 1.06. In addition, the “binding to MTHFS” value in assay [2] is “bound MTHFS”. The “binding to DHFR” value at DHFR is listed as “did not appear to bind DHFR”. For the same compound, the “competition for PTR1 (Figure 6)” value in assay [4] (T. brucei lysate) is on record as “competed for PTR1”. The figures for the “fold change vs vehicle control” value in assay [4] (setting [9]), in assay [5] (setting [10]) and in [7] were 0.16, 0.98 and 0.28, respectively. Moreover, on TS, the “inhibition, TS” value is recorded as above 56%. For the same compound, in assay [7], the “binding and competition to phenylalanine-4-hydroxylase (PAH)” value is “binding and competition”.
Consider `Nc1nc2c(c(=O)[nH]1)N(C=O)C(CNc1ccc(C(=O)N[C@@H](CCC(=O)O)C(=O)O)cc1)CN2` (stereo partly drawn) [LEU, leucovorin], for which the fold change in assay [1] (setting [8]) stood at 1.01; on PTR1 (setting [13]), 1.04. Besides, the “binding to MTHFS” value in assay [2] is listed as “bound MTHFS”. Moreover, the “fold changes relative to vehicle control” value is given as 0.15 in [2] (protein MTHFS, HeLa); 2.72 at DHFR (setting [11]); 0.61 in assay [3] (setting [12]); 0.52 at methylene-THF-reductase (protein MTHFR, HeLa); 0.44 on TS (protein TYMS, HeLa); 0.98 in [6] (HeLa, protein SERPINB1). Moreover, the “fold change vs vehicle control” value in assay [4] (setting [9]) is 0.92; in assay [5] (setting [10]) it was 0.95; in assay [7] it was 0.99. Also, the “inhibition, TS” value at TS (bead mixture, HeLa cell extract) is on record as above 56%.
